Here are results for 1 compound from BindingDB's records for patent US11944616 (Institut National De La Sante Et De La Recherche Medicale …, 2024).

Each structure is given as a SMILES string.

This assay concerns the target Glutamate receptor ionotropic, NMDA 1 (Rattus norvegicus, UniProt P35439). As to the kind of experiment: In Vitro Activity Assay. The source says: In Vitro Activity: Evaluation of NMDAR Blocking Activity Using Patch-ClampPrevious studies have shown that the NMDAR exists in the peripheral vasculature.All NMDAR subunits were examined by RT-PCR and sequencing in the peripheral endothelium and peripheral vascular smooth muscle cells.

What is called IC50 is the concentration that inhibits the measured activity by half. A higher IC50 goes with a need for much substance. Turning to `CC[N@@+]1(CCO)[C@H]2Cc3ccccc3[C@@]1(C)c1ccccc12` [US11944616, Compound 27], the IC50 turned out to be 360 nM.
